According to ChEMBL document CHEMBL3596163, “Discovery of imidazo[1,5-a]pyridines and -pyrimidines as potent and selective RORc inverse agonists” (Bioorg Med Chem Lett, 2015):
≈ marks a conversion by molar mass, not a printed value.

Assays:
[1] = biological target: T1, Nuclear receptor ROR-gamma (Homo sapiens, UniProt P51449); assay: Inverse agonist activity at GAL4-fused human RORc expressed in HEK293T cells assessed as suppression of basal transcriptional activity after 20 hrs by dual-glo luciferase reporter gene assay; type: functional, cell-based, HEK-293T
T1 sequence (P51449 whole entry): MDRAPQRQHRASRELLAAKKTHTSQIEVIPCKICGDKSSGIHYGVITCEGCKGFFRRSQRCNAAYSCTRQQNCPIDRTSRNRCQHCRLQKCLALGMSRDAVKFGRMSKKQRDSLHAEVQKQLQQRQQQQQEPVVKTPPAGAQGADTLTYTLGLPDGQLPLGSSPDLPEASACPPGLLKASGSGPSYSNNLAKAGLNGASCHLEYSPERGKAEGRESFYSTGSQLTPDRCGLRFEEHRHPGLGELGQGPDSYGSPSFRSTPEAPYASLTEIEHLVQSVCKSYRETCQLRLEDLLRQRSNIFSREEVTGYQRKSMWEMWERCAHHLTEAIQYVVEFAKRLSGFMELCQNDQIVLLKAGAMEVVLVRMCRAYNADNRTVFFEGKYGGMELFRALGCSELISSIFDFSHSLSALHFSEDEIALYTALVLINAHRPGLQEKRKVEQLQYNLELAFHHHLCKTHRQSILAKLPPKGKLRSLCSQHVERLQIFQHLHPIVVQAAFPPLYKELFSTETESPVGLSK

[2] = biological target: T1, Nuclear receptor ROR-gamma; assay: Inverse agonist activity at N-terminal 6xHis-tagged human RORc ligand binding domain (241 to 486) expressed in bacterial expression system assessed as inhibition of SRC1 co-activator peptide recruitment after 3 hrs by TR-FRET analysis; type: functional
MDCK = assay: Efflux ratio of apparent permeability from apical to basolateral side over basolateral to apical side in MDCK cells at 2 uM by LC-MS/MS analysis; type: ADME, cell-based, Canis lupus familiaris; settings: dog
[3] = Apparent permeability from apical to basolateral side in MDCK cells at 2 uM by LC-MS/MS analysis; type: ADME, cell-based, Canis lupus familiaris; settings: dog
[4] = Plasma protein binding in human at 5 uM after 4 hrs by equilibrium dialysis method; type: ADME, cell-free; settings: read-out: PPB
[5] = Plasma protein binding in rat at 5 uM after 4 hrs by equilibrium dialysis method; type: ADME, cell-free; settings: read-out: PPB
[6] = Apparent permeability from basolateral to apical side in MDCK cells at 2 uM by LC-MS/MS analysis; type: ADME, cell-based, Canis lupus familiaris; settings: dog
[7] = Kinetic aqueous solubility of the compound in PBS buffer at 23 degC after 24 hrs by LC/CLND analysis; type: physicochemical; settings: read-out: Kinetic_solubility
[8] = AUC in Sprague-Dawley rat at […], po; type: ADME, organism-based; settings: in vivo
[9] = Volume of distribution in Sprague-Dawley rat at 0.5 mg/kg, iv; type: ADME, organism-based; settings: in vivo
[10] = Cmax in Sprague-Dawley rat at […], po; type: ADME, organism-based; parameters: dose 1.5 mg/kg, route oral; settings: in vivo
[11] = Half life in Sprague-Dawley rat at 0.5 mg/kg, iv; type: ADME, organism-based; settings: in vivo
[12] = Oral bioavailability in Sprague-Dawley rat at […]; type: ADME, organism-based; settings: in vivo
[13] = Plasma clearance in Sprague-Dawley rat at 0.5 mg/kg, iv; type: ADME, organism-based

Row | Structure (SMILES) | EC50 [1] | EC50 [2] | Ratio (MDCK) | Papp A→B at 2 µM [3] | fraction unbound at 4 h, 5 µM [4] | fraction unbound at 4 h, 5 µM [5] | Papp B→A at 2 µM [6] | solubility kinetic at 24 h [7] | AUC [8] | Vd [9] | Cmax [10] | half-life [11] | bioavailability [12] | clearance [13]
1 | O=C(O)c1ccc(-c2nc(C(=O)c3c(Cl)cccc3C(F)(F)F)n3ccccc23)c(F)c1 | 10 nM | 9 nM | – | – | – | – | – | – | – | – | – | – | – | –
2 | O=C(O)c1ccc(-c2nc(C(=O)c3c(Cl)cccc3C3CC3)n3cccnc23)cc1O | 13 nM | 2 nM | < 2 | 8 ×10⁻⁶ cm/s | 0.01 | 0.01 | 15 ×10⁻⁶ cm/s | 45 µM (≈ 19.5 µg/mL) | – | – | – | – | – | –
3 | O=C(O)c1ccc(-c2nc(C(=O)c3c(Cl)cccc3C(F)(F)F)n3ccccc23)cc1O | 4 nM | 2 nM | < 2 | 12 ×10⁻⁶ cm/s | < 0.01 | < 0.01 | 10 ×10⁻⁶ cm/s | 86 µM (≈ 39.6 µg/mL) | 0.25 µM·h | 1.2 L/kg | 70 nM | 12 min | 40% | 130 mL/min/kg
4 | O=C(O)c1ccc(-c2nc(C(=O)c3c(Cl)cccc3C(F)(F)F)n3c2CCCC3)c(F)c1 | 36 nM | 32 nM | – | – | – | – | – | – | – | – | – | – | – | –
5 | O=C(O)c1ccc(-c2nc(C(=O)c3c(Cl)cccc3C3CC3)n3c2CCCC3)c(F)c1 | 26 nM | 27 nM | – | – | – | – | – | – | – | – | – | – | – | –
